Reference: ChEMBL document CHEMBL1137332, “Crystal structures of human adenosine kinase inhibitor complexes reveal two distinct binding modes” (J Med Chem, 2006)

Molecular target: Adenosine kinase (Homo sapiens, UniProt P55263)
Experiment: Inhibition of human cytosolic AK

Sequence of Adenosine kinase (P55263 whole entry): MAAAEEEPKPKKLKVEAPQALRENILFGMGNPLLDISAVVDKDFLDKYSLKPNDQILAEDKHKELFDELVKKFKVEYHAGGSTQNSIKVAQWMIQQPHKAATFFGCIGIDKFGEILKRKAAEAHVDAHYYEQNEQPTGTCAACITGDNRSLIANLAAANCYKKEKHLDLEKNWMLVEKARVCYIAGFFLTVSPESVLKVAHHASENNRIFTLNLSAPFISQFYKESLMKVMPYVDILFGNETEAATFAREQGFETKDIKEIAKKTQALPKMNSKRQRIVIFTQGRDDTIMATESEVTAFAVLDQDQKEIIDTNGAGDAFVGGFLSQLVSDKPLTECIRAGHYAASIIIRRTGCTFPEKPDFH

Q: Which IC50 does the source give for `CN(C)c1ccc(C#Cc2ncnc(N)c2-c2ccc3c(c2)OCO3)cc1` here?
A: Its IC50 is 9 nM.

Q: `Nc1ncnc(C#Cc2ccc(N3CCOCC3)nc2)c1Cc1ccccc1` was tested. Which IC50 did it give?
A: The IC50 was 40 nM.

Q: How did the IC50 turn out when `CN(C)c1ccc(-c2c(N)ncnc2C#Cc2ccc(N3CCOCC3)nc2)cc1` was run?
A: Its IC50 is 68 nM.

Q: Which IC50 does the source give for `Cc1nc(N)c(-c2ccccc2)c(C#Cc2ccc(N(C)C)cc2)n1` here?
A: Its IC50 is over 1000 nM.

Q: With `Nc1cc(C#Cc2ccc(N3CCOCC3)nc2)ncn1` as the compound, how does the IC50 read?
A: Its IC50 is 120 nM.

Q: How did the IC50 turn out when `CN(C)c1ccc(C#Cc2ncnc(N)c2-c2ccccc2)cc1` was run?
A: Its IC50 is 20 nM.

Q: For `Nc1ncnc(C#Cc2ccc(N3CCOCC3)nc2)c1CCCc1ccccc1`, which IC50 is on record?
A: Its IC50 is 2.5 nM.
